According to ChEMBL document CHEMBL1201862, “PubChem BioAssay data set” (2004):
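A five-concentration, 48-hour dose response in 96-well plates underlies each endpoint, interpolated linearly between surrounding concentrations. The concentration for 50% growth inhibition is given as GI50.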 The source made the active and inactive calls. Rule as the data show it: active = GI50 up to about 1.1 µM and inactive = higher.

Columns and labels:
Test in all cases: DTP human tumour cell line panel, 48 h
[1] = test system: LXFL 529
[2] = test system: KM12
[3] = test system: IGROV-1
[4] = test system: HOP-92
[5] = test system: EKVX
[6] = test system: UACC-62
[7] = test system: HL-60
[8] = test system: SK-MEL-2
[9] = test system: HT-29
[10] = test system: SR
[11] = test system: Malme-3M
[12] = test system: KM-20L2
[13] = test system: OVCAR-3
[14] = test system: SNB-78
[15] = test system: DMS-114
[16] = test system: OVCAR-5
[17] = test system: TK-10
[18] = test system: LOX IMVI
[19] = test system: NCI-H522
[20] = test system: NCI-H460
[21] = test system: SF-268
[22] = test system: HOP-62
[23] = test system: K562
[24] = test system: A498
[25] = test system: M19-MEL
[26] = test system: A549
[27] = test system: XF498
[28] = test system: DLD-1
[29] = test system: SN12C
[30] = test system: U-251
[31] = test system: COLO 205
[32] = test system: SNB-19
[33] = test system: HCT-116
[34] = test system: CAKI-1
[35] = test system: 786-0
[36] = test system: OVCAR-8
[37] = test system: OVCAR-4
[38] = test system: UO-31
[39] = test system: DMS-273
[40] = test system: NCI-H23
[41] = test system: SNB-75
[42] = test system: CCRF-CEM
[43] = test system: SF-295
[44] = test system: HCT-15
[45] = test system: SK-MEL-28
[46] = test system: UACC-257
[47] = test system: SK-OV-3
[48] = test system: SW-620
[49] = test system: HCC 2998
[50] = test system: SF-539
[51] = test system: MOLT-4
[52] = test system: NCI-H226
[53] = test system: M14
[54] = test system: ACHN
[55] = test system: SK-MEL-5
[56] = test system: RXF 393
[57] = test system: RPMI-8226

## Oc1ncnc2c1sc(=S)n2-c1ccccc1
[1]
  GI50: > 100 µM (inactive)
[2]
  GI50: > 100 µM (inactive)
[3]
  GI50: > 100 µM (inactive)
[4]
  GI50: 70.3 µM (inactive)
[5]
  GI50: > 100 µM (inactive)
[6]
  GI50: > 100 µM (inactive)
[7]
  GI50: > 100 µM (inactive)
[8]
  GI50: > 100 µM (inactive)
[9]
  GI50: > 100 µM (inactive)
[10]
  GI50: > 100 µM (inactive)
[11]
  GI50: > 100 µM (inactive)
[12]
  GI50: > 100 µM (inactive)
[13]
  GI50: > 100 µM (inactive)
[14]
  GI50: > 100 µM (inactive)
[15]
  GI50: > 100 µM (inactive)
[16]
  GI50: > 100 µM (inactive)
[17]
  GI50: > 100 µM (inactive)
[18]
  GI50: > 100 µM (inactive)
[19]
  GI50: > 100 µM (inactive)
[20]
  GI50: > 100 µM (inactive)
[21]
  GI50: > 100 µM (inactive)
[22]
  GI50: > 100 µM (inactive)
[23]
  GI50: > 100 µM (inactive)
[24]
  GI50: 94.8 µM (inactive)
[25]
  GI50: > 100 µM (inactive)
[26]
  GI50: > 100 µM (inactive)
[27]
  GI50: > 100 µM (inactive)
[28]
  GI50: > 100 µM (inactive)
[29]
  GI50: > 100 µM (inactive)
[30]
  GI50: > 100 µM (inactive)
[31]
  GI50: > 100 µM (inactive)
[32]
  GI50: > 100 µM (inactive)
[33]
  GI50: > 100 µM (inactive)
[34]
  GI50: > 100 µM (inactive)
[35]
  GI50: > 100 µM (inactive)
[36]
  GI50: > 100 µM (inactive)
[37]
  GI50: > 100 µM (inactive)
[38]
  GI50: 74.6 µM (inactive)
[39]
  GI50: > 100 µM (inactive)
[40]
  GI50: > 100 µM (inactive)
[41]
  GI50: > 100 µM (inactive)
[42]
  GI50: > 100 µM (inactive)
[43]
  GI50: > 100 µM (inactive)
[44]
  GI50: > 100 µM
[45]
  GI50: > 100 µM (inactive)
[46]
  GI50: > 100 µM (inactive)
[47]
  GI50: > 100 µM (inactive)
[48]
  GI50: > 100 µM (inactive)
[49]
  GI50: > 100 µM (inactive)
[50]
  GI50: > 100 µM (inactive)
[51]
  GI50: > 100 µM (inactive)
[52]
  GI50: > 100 µM (inactive)
[53]
  GI50: > 100 µM (inactive)
[54]
  GI50: > 100 µM (inactive)
[55]
  GI50: > 100 µM (inactive)

## COc1ccc(C(=O)O)c2c(=O)c3ccccc3[nH]c12
[1]
  GI50: > 100 µM (inactive)
[2]
  GI50: > 100 µM (inactive)
[3]
  GI50: > 100 µM (inactive)
[4]
  GI50: > 100 µM (inactive)
[5]
  GI50: > 100 µM (inactive)
[6]
  GI50: > 100 µM (inactive)
[7]
  GI50: > 100 µM (inactive)
[8]
  GI50: > 100 µM (inactive)
[9]
  GI50: > 100 µM (inactive)
[10]
  GI50: > 100 µM (inactive)
[11]
  GI50: > 100 µM (inactive)
[12]
  GI50: > 100 µM (inactive)
[13]
  GI50: > 10 µM (inactive)
[14]
  GI50: > 100 µM (inactive)
[16]
  GI50: > 100 µM (inactive)
[17]
  GI50: > 100 µM (inactive)
[18]
  GI50: > 100 µM (inactive)
[19]
  GI50: > 100 µM (inactive)
[20]
  GI50: > 100 µM (inactive)
[21]
  GI50: > 100 µM (inactive)
[22]
  GI50: > 31.6 µM (inactive)
[23]
  GI50: > 100 µM (inactive)
[24]
  GI50: > 100 µM (inactive)
[25]
  GI50: > 100 µM (inactive)
[26]
  GI50: > 100 µM (inactive)
[27]
  GI50: > 100 µM (inactive)
[29]
  GI50: > 100 µM (inactive)
[30]
  GI50: > 100 µM (inactive)
[31]
  GI50: > 100 µM (inactive)
[32]
  GI50: > 100 µM (inactive)
[33]
  GI50: > 100 µM (inactive)
[34]
  GI50: > 100 µM (inactive)
[35]
  GI50: > 100 µM (inactive)
[36]
  GI50: > 100 µM (inactive)
[37]
  GI50: > 100 µM (inactive)
[38]
  GI50: > 100 µM (inactive)
[39]
  GI50: > 100 µM (inactive)
[40]
  GI50: > 100 µM (inactive)
[42]
  GI50: > 31.6 µM (inactive)
[43]
  GI50: > 100 µM (inactive)
[44]
  GI50: > 100 µM
[45]
  GI50: > 100 µM (inactive)
[56]
  GI50: > 100 µM (inactive)
[46]
  GI50: > 100 µM (inactive)
[47]
  GI50: > 100 µM (inactive)
[48]
  GI50: > 100 µM (inactive)
[49]
  GI50: > 100 µM (inactive)
[57]
  GI50: > 100 µM (inactive)
[50]
  GI50: > 100 µM (inactive)
[51]
  GI50: > 100 µM (inactive)
[52]
  GI50: > 100 µM (inactive)
[53]
  GI50: > 31.6 µM (inactive)
[54]
  GI50: > 100 µM (inactive)
